Reference: article PMC3815946 (Microbial biotechnology, 2009)
Where two headings read alike, the source gives them in different places.

Tests used:
3A6 [1] = assay: steady-state hydrolysis kinetics, Hanes-Woolf plot; format: biochemical; conditions: read-out: 3A6 / Km; 100 mM Tris-sulfate, pH 8.5, 40 °C, enzyme 0-12 nM
3A6 [2] = assay: steady-state hydrolysis kinetics, Hanes-Woolf plot; format: biochemical; conditions: read-out: 3A6I / Km; 100 mM Tris-sulfate, pH 8.5, 40 °C, enzyme 0-12 nM

Row | Structure (SMILES) | Km (3A6 [1]) | Km (3A6 [2])
1 | COC(=O)/C=C/c1ccc(O)cc1 [Methyl p-coumarate] | 1550 ± 110 µM | 
2 | COc1cc(/C=C/C(=O)OC[C@@H]2O[C@@H](Oc3ccc([N+](=O)[O-])cc3)[C@H](O)[C@H]2O)ccc1O [Nph-5-Fe-Araf, p‐nitrophenyl 5‐O‐trans‐feruloyl‐α‐L‐arabinofuranoside] | 970 ± 30 µM | 
3 | COC(=O)/C=C/c1cc(OC)c(O)c(OC)c1 [Methyl sinapinate] | 400 ± 80 µM | 
4 | CCCC(=O)Oc1ccc([N+](=O)[O-])cc1 [p-Nitrophenyl butyrate] | 240 ± 20 µM | 890 ± 70 µM

Second part, the compound after the results:

Row | Km (3A6 [1]) | Km (3A6 [2]) | Structure (SMILES)
5 | 150 ± 90 µM |  | CCC(=O)Oc1ccc([N+](=O)[O-])cc1 [p-Nitrophenyl propionate]
6 | 2340 ± 370 µM |  | COC(=O)/C=C/c1ccc(O)c(OC)c1 [Methyl ferulate]
7 | 1530 ± 90 µM |  | CCCCCC(=O)Oc1ccc([N+](=O)[O-])cc1 [p-Nitrophenyl hexanoate]
8 | 180 ± 90 µM | 3480 ± 210 µM | CC(=O)Oc1ccc([N+](=O)[O-])cc1 [p-Nitrophenyl acetate]
9 | 1960 ± 370 µM |  | COc1cc(/C=C/C(=O)OC[C@@H]2O[C@@H](O[C@@H]3[C@@H](O)[C@H](O[C@@H]4COC(O)[C@H](O)[C@H]4O)OC[C@H]3O)[C@H](O)[C@H]2O)ccc1O (stereo partly drawn) [FAXX, (5‐O‐(trans‐feruloyl)‐α‐L‐arabinofuranosyl)‐(1,3)‐β‐D‐xylopyranosyl‐(1,4)‐D‐xylopyranose]
